Values quoted from earlier work as cited in patent US9687472B2, “Use of antioxidants as an adjuvant to immune stimulators to augment tumor immunity and prevent toxicity associated with oxidative stress” (BATU BIOLOGICS, priority 2014, dated 2017).

Assays:
endothelial cell = conditions: in vitro
[1] = tested on: circulating apoptotic endothelial cells; conditions: 2.5 g intravenously and 3 days of 4 g per day oral
[2] = tested on: human umbilical vein endothelial (HUVEC) cells; conditions: in response to TNF-alpha, in vitro
[3] = 10 mg/kg intravenously before induction of sepsis
[4] = i.v. 66 mg/kg/hr for 24 hours
human endothelial cells = conditions: hypoxic (24 hours; 1% O(2))/reoxygenated (3 hours; 21% O(2)) cells
complement system = conditions: patients

## O=C1O[C@H]([C@@H](O)CO)C(O)=C1O [AA, ascorbic acid]
Endothelial cell
  TNF-alpha induced endothelial cell apoptosis: reduction
[1]
  circulating apoptotic endothelial cells: reduction
[2]
  endothelial cell expression of ICAM-1: reduce
[3]
  survival: 50%
[4]
  24 hr total fluid infusion volume: statistically significant reductions
  fluid retention (indicative of vascular leakage): statistically significant reductions
  need for mechanical ventilation: 12.1 ± 8.8 days

## O=C[C@H](O)[C@H](O)[C@@H](O)[C@@H](O)CO [L-mannose]
Human endothelial cells
  complement activation (iC3b deposition): not

## CC(=O)N[C@H]1C(O)O[C@H](CO)[C@@H](O)[C@@H]1O (stereo partly drawn) [N-acetyl-D-glucosamine]
Human endothelial cells
  complement activation (iC3b deposition): blocked activation

## O=C[C@@H](O)[C@@H](O)[C@H](O)[C@H](O)CO [D-mannose]
Human endothelial cells
  complement activation (iC3b deposition): blocked activation

B1: C1 esterase inhibitor: complement inhibitor (protein, UniProt P05155 23-500, looked up)
Plasma protease C1 inhibitor: NPNATSSSSQDPESLQDRGEGKVATTVISKMLFVEPILEVSSLPTTNSTTNSATKITANTTDEPTTQPTTEPTTQPTIQPTQPTTQLPTDSPTQPTTGSFCPGPVTLCSDLESHSTEAVLGDALVDFSLKLYHAFSAMKKVETNMAFSPFSIASLLTQVLLGAGENTKTNLESILSYPKDFTCVHQALKGFTTKGVTSVSQIFHSPDLAIRDTFVNASRTLYSSSPRVLSNNSDANLELINTWVAKNTNNKISRLLDSLPSDTRLVLLNAIYLSAKWKTTFDPKKTRMEPFHFKNSVIKVPMMNSKKYPVAHFIDQTLKAKVGQLQLSHNLSLVILVPQNLKHRLEDMEQALSPSVFKAIMEKLEMSKFQPTLLTLPRIKVTTSQDMLSIMEKLEFFDFSYDLNLCGLTEDPDLQVSAMQHQTVLELTETGVEAAAASAISVARTLLVFEVQQPFLFVLWDQQHKFPVFMGRVYDPRA
Complement system
  IL-2 induced hypotension and complement activation: capable of reducing
